Test results as given in patent US20100221763A1, “Specific Acceptors for Transferases to Saccharides and Method for Obtaining and Using Same” (Health Research, Inc, priority 2005, published 2010).
“And” between values parts separate entries of the source, which are not always exact repeats. Identical values can stand only once. Marks after values point to notes of the source that are not given here.

Assays:
[1] = target: T1, Rat recombinant α2,3(N)ST (Rattus norvegicus, UniProt Q02734); experiment: Sialyltransferase assay with cloned α2,3(N)ST; format: biochemical; conditions: for Sialyltransferase activity (%) Cloned α2,3(N)ST: Table I, acceptor 7.5 mM, 100% = 29520 CPM (Galβ1,4GlcNAcβ-O—Al); for Cloned Sialyltransferase Activities α2,3(N) ST %: Table III, compound 7.5 mM, 100% = 38140 CPM (Galβ1,4GlcNAcβ1,6(3-O-MeGalβ1,3)GalNAcα-O-Bn)
T1 construct: purchased Calbiochem
T1 sequence (Q02734 29-374 limits assumed): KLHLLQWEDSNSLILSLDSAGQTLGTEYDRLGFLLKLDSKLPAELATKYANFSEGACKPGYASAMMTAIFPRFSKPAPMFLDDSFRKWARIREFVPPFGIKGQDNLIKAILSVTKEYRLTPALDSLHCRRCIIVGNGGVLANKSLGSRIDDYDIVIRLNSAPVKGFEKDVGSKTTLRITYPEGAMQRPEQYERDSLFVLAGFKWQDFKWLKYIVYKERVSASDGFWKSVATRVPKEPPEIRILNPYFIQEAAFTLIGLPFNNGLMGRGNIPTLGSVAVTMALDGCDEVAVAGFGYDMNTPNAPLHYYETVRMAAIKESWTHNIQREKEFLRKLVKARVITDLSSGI
Description: (§1) Rat recombinant α2,3(O)ST, α2,3(N)ST and α2,6(N)ST were purchased from Calbiochem and stored at either −20° C. or −70° C. as recommended by the supplier. […] 10 μl aliquots of the diluted enzymes were used in the assays run in duplicate.
(§2) The incubation mixtures run in duplicate contained 0.1M NaCacodylate buffer pH6.0, the acceptor (typically at 7.5 mM, or as indicated in some experiments), CMP-[9 ^3H] NeuAc (typically 0.2 μci; 20 μci/nmol or as indicated in some experiments) and the enzyme in a total volume of 20 μl. The control incubation mixtures contained everything except the acceptor. Incubation was carried out for 2 h at 37° C. The enzymatic transfer of [9-^3H] NeuAc to a typical acceptor was linear for 2 h and less than 30% CMP-[9-^3H] NeuAc was utilized. Chromatography, using either Dowex-1-Formate, Sep-Pak C18 or Biogel P2, was applied to separate radioactive product from un-reacted [9-^3H] NeuAc as described below.
(§3) The radioactive products from neutral allyl and methyl glycosides as well as non-glycosides were measured by fractionation on Dowex-1-Formate (Bio-Rad: AG-1X8; 200-400 mesh; format form) as follows: The incubation mixture was diluted with 1.0 ml water and passed through AG-1-formate column (1.0 ml bed volume in a Pasteur pipet which had been washed with 5 ml of 2M Formic acid followed by 10 ml water). The column was washed twice with 1.0 ml water after the entry of the sample and then eluted with 3.0 ml of 0.1M NaCl. The radioactivity present in water and 0.1M NaCl eluates were measured separately using 3a70 scintillation cocktail (Research Products International, Mount Prospect, Ill.) and a Beckman LS6500 scintillation counter. The CPM values were corrected by subtracting the blank CPM. Any radioactivity present in the water eluate (as noticed in the case of some methylglycosides) was added to the corresponding CPM value of 0.1M NaCl eluate. The radioactive products from sulfated and/or sialylated methylglycosides were also measured by the above procedure, only the elution of the AG-1-Formate column was continued further with 3.0 ml of 0.2M NaCl for achieving a complete elution of the radioactive product, a correction being made as before by subtracting the corresponding blank values.
(§4) The radioactive products from benzylglycosides and monosialylated benzylglycosides were measured by hydrophobic chromatography on Sep-Pak C18 cartridge (Waters, Milford, Mass.) and eluting the product with 3.0 ml methanol (30). The radioactivity was determined by liquid scintillation as above.
(§5) For such work, a Biogel P2 column (Fine Mesh; 1.0×116.0 cm) was used with 0.1M pyridine acetate pH5.4 as the eluent at room temperature. The effluent fractions were monitored for radioactivity and the first peak containing radioactivity was collected, lyophilized to dryness, dissolved in 200 μl of water and stored frozen at −20° C. for thin layer chromatography (TLC) and other experimentation.

LNCaP α2,3(O)ST = experiment: Sialyltransferase assay with LNCaP cell extract; format: biochemical, human; conditions: for Sialyltransferase activity (%) LNCaP α2,3(O)ST: Table I, acceptor 7.5 mM, 100% = 30930 CPM (3-O-MeGalβ1,4GlcNAcβ1,6(Galβ1,3)GalNAcα-O-Bn); for LNCaPα2,3(O)ST %: Table III, compound 7.5 mM, 100% = 30100 CPM (3-O-MeGalβ1,4GlcNAcβ1,6(Galβ1,3)GalNAcα-O-Bn)
Description: The prostate carcinoma cell line, LNCaP, was grown in RPMI 1640 supplemented with 10% fetal bovine serum and antibiotics (penicillin, streptomycin and amphotericin B) under conditions recommended by American Type Culture Collection (Manassas, Va.). The cells were homogenized with 0.1M Tris-Maleate pH6.3 containing 2% Triton X-100 using a Dounce all glass hand-operated homogenizer. The homogenate was centrifuged at 16,000 g for 1 h at 4° C. Protein concentration in supernatant was measured using the BCA assay (Pierce Biotech, Inc., Rockford, Ill.), with BSA as the standard. The supernatant was adjusted to 5 mg protein/ml by adding the necessary amount of extraction buffer and then stored frozen at −20° C. until use. 10 μl aliquot of this extract was used in assays run in duplicate.
as §2, §3, §4, §5

[2] = target: T2, Rat recombinant α2,6(N)ST (Rattus norvegicus, UniProt P13721); experiment: Sialyltransferase assay with cloned α2,6(N)ST; format: biochemical; conditions: for Sialyltransferase activity (%) Cloned α2,6(N)ST: Table I, acceptor 7.5 mM, 100% = 43500 CPM (Galβ1,4GlcNAcβ-O—Al); for Cloned Sialyltransferase Activities α2,6(N)ST %: Table III, compound 7.5 mM, 100% = 30440 CPM (Galβ1,4GlcNAcβ1,6(3-O-MeGalβ1,3)GalNAcα-O-Bn)
T2 construct: purchased Calbiochem
T2 sequence (P13721 1-403): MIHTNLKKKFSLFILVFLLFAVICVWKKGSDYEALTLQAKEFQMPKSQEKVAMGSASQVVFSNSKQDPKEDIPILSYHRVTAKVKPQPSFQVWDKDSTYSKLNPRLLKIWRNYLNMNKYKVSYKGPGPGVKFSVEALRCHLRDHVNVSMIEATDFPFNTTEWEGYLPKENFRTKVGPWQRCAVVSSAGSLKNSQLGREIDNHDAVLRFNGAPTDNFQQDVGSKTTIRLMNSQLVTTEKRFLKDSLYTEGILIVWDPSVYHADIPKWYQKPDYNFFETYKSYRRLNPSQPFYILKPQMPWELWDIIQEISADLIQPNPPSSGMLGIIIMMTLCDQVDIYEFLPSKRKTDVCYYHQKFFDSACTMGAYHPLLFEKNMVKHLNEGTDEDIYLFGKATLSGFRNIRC
Description: as §1, §2, §3, §4, §5

[3] = target: T3, Rat recombinant α2,3(O)ST (Rattus norvegicus, UniProt Q11205); experiment: Sialyltransferase assay with cloned α2,3(O)ST; format: biochemical; conditions: for Sialyltransferase activity (%) Cloned α2,3(O)ST: Table I, acceptor 7.5 mM, 100% = 40560 CPM (3-O-MeGalβ1,4GlcNAcβ1,6(Galβ1,3)GalNAcα-O-Bn); for Cloned Sialyltransferase Activities α2,3(O) ST %: Table III, compound 7.5 mM, 100% = 39200 CPM (3-O-MeGalβ1,4GlcNAcβ1,6(Galβ1,3)GalNAcα-O-Bn)
T3 construct: purchased Calbiochem
T3 sequence (Q11205 1-350): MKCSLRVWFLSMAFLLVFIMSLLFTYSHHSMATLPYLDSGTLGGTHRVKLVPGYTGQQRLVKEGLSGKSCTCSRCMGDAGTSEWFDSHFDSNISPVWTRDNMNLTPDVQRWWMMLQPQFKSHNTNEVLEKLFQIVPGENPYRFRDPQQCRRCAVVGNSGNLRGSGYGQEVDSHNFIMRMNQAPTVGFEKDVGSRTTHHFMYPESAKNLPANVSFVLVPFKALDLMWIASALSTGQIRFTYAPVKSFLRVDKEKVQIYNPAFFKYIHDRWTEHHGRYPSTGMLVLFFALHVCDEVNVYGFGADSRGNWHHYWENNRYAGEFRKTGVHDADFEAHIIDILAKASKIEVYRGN
Description: as §1, §2, §3, §4, §5

SMILES	Sialyltransferase activity (%) Cloned α2,3(N)ST [1]	Sialyltransferase activity (%) LNCaP α2,3(O)ST (LNCaP α2,3(O)ST)	Sialyltransferase activity (%) Cloned α2,6(N)ST [2]	Sialyltransferase activity (%) Cloned α2,3(O)ST [3]	Cloned Sialyltransferase Activities α2,3(N) ST % [1]	LNCaPα2,3(O)ST % (LNCaP α2,3(O)ST)	Cloned Sialyltransferase Activities α2,6(N)ST % [2]	Cloned Sialyltransferase Activities α2,3(O) ST % [3]	α2,3(N)ST activity compared to Galβ1,4GlcNAcβ1,6(Galβ1,3)GalNAcα-O-Bn (FIG. 3B) ([1]; lowest concentration tested, 0.05 mM)	α2,3(N)ST activity compared to Galβ1,4GlcNAcβ1,6(Galβ1,3)GalNAcα-O-Bn (FIG. 3B) ([1]; maximum concentration tested, 0.25 mM)	α2,6(N)ST activity at varying acceptor concentration (FIG. 3A) ([2]; maximum concentration tested, 0.75 mM)	α2,6(N)ST activity at varying acceptor concentration (FIG. 3A) ([2]; lowest concentration tested, 0.15 mM)
C=CCO[C@@H]1O[C@H](CO)[C@@H](O[C@@H]2O[C@H](CO)[C@H](O)[C@H](O)[C@H]2O)[C@H](O)[C@H]1NC(C)=O [Galβ1,4GlcNAcβ-O—Al]	100.0^a %	0.5%	100.0% and 100.0^b %	4.7%	–	–	–	–	–	–	–	–
CO[C@H]1[C@@H](O)[C@@H](CO)O[C@@H](O[C@H]2[C@H](O)[C@@H](NC(C)=O)[C@H](OC[C@H]3O[C@H](OCc4ccccc4)[C@H](NC(C)=O)[C@@H](O[C@@H]4O[C@H](CO)[C@H](O)[C@H](O)[C@H]4O)[C@H]3O)O[C@@H]2CO)[C@@H]1O [3-O-MeGalβ1,4GlcNAcβ1,6(Galβ1,3)GalNAcα-O-Bn]	6.1%	100.9% and 100.0% and 100.0^d %	4.4%	100.0% and 100.0^c %	4.5%	100.0^d %	6.4%	100.0^c %	–	–	–	–
CO[C@@H]1[C@H](O)[C@@H](O)[C@H](O[C@H]2[C@H](O)[C@@H](NC(C)=O)[C@H](OC[C@H]3O[C@H](OCc4ccccc4)[C@H](NC(C)=O)[C@@H](O[C@@H]4O[C@H](CO)[C@H](O)[C@H](O)[C@H]4O)[C@H]3O)O[C@@H]2CO)O[C@@H]1CO [4-O-MeGalβ1,4GlcNAcβ1,6(Galβ1,3)GalNAcα-O-Bn]	–	–	–	–	99.8%	97.1%	12.6%	103.0%	four fold	two-fold	almost inactive	–
CC(=O)N[C@H]1[C@H](OC[C@H]2O[C@H](OCc3ccccc3)[C@H](NC(C)=O)[C@@H](O[C@@H]3O[C@H](CO)[C@H](O)[C@H](F)[C@H]3O)[C@H]2O)O[C@H](CO)[C@@H](O[C@@H]2O[C@H](CO)[C@H](O)[C@H](O)[C@H]2O)[C@@H]1O [Galβ1,4GlcNAcβ1,6(3-FGalβ1,3)GalNAcα-O-Bn]	–	–	–	–	96.9^25%	1.7%	77.7^19%	77.2%	–	–	–	–
CO[C@H]1O[C@H](CO[C@@H]2O[C@H](CO)[C@@H](O[C@@H]3O[C@H](CO)[C@H](O)[C@H](O)[C@H]3O)[C@H](O[C@@H]3O[C@@H](C)[C@@H](O)[C@@H](O)[C@@H]3O)[C@H]2NC(C)=O)[C@H](O)[C@H](O[C@@H]2O[C@H](CO)[C@H](O)[C@H](O)[C@H]2O)[C@H]1NC(C)=O [Galβ1,4(Fucα1,3)GlcNAcβ1,6(Galβ1,3)GalNAcα-O-Me]	19.0%	–	7.1%	133.4%	–	–	–	–	–	–	–	–
CC(=O)N[C@H]1[C@H](OC[C@H]2O[C@H](OCc3ccccc3)[C@H](NC(C)=O)[C@@H](O[C@@H]3O[C@H](CO)[C@H](O)[C@H](O)[C@H]3O)[C@H]2O)O[C@H](CO)[C@@H](O[C@@H]2O[C@H](CO)[C@H](O)[C@H](O)[C@H]2O)[C@@H]1O [Galβ1,4GlcNAcβ1,6(Galβ1,3)GalNAcα-O-Bn]	100.7%	–	93.3%	94.4^4%	–	–	–	–	–	–	–	considerable activity
CC(=O)N[C@H]1[C@H](OC[C@H]2O[C@H](OCc3ccccc3)[C@H](NC(C)=O)[C@@H](O[C@@H]3O[C@H](CO)[C@H](O)[C@H](O)[C@H]3O)[C@H]2O)O[C@H](CO)[C@@H](O[C@@H]2O[C@H](CO)[C@H](O)[C@H](F)[C@H]2O)[C@@H]1O [3-FGalβ1,4GlcNAcβ1,6(Galβ1,3)GalNAcα-O-Bn]	–	–	–	–	7.2%	91.5%	11.3%	102.9^12%	–	–	–	–
CO[C@H]1[C@@H](O)[C@@H](CO)O[C@@H](O[C@H]2[C@H](O)[C@@H](NC(C)=O)C(O)O[C@@H]2CO)[C@@H]1O (stereo partly shown) [3-O-MeGalβ1,4GlcNAc]	1.4%	–	8.7%	3.6%	–	–	–	–	–	–	–	–
